The text below walks through data of patent publication US5276120A, “Process for forming omega-deuxy-azasugars” (The Scripps Research Institute, priority 1992, dated 1994).

Each structure is given as a SMILES string. Like-named read-outs stand apart in the source and are kept apart here.

The target of one assay is T1, α-Glucosidase (BY) (Saccharomyces cerevisiae, UniProt P07265).
T1 construct: purchased Sigma
In words: Glycosidase inhibition, α-glucosidase from brewers yeast. The assay is classed as biochemical. The text has this: (§1) Materials: All of the buffers, enzymes, and substrates were purchased from Sigma and used as received. These included piperazine-N,N'-bis(2-ethanesulfonic acid) (PIPES), sodium acetate (NaOAc), ethylenediaminetetraacetic acid (EDTA), β-D-glucosidase (from sweet almond), p-nitrophenyl β-D-glucoside, α-D-glucosidase, p-nitrophenyl α-D-glucoside, β-N-acetyl-D-glucosaminedase, p-nitrophenyl β-N-acetyl-D-glucosaminide, α-D-mannosidase, and p-nitrophenyl α-D-mannoside.
b) PIPES-NaOAc buffer (0.01M PIPES, 0.2M NaOAc and 0.01 mM EDTA, pH 6.5). This buffer was prepared according to the literature procedure [Dale et al., Biochemistry 1985, 24, 3530].
d) α-D-Glucosidase: 1.5 mg of solid protein (70 units/mg) were dissolved in 1 mL PIPES-NaOAc buffer solution and used for assays without further dilution.
g) Substrate solutions: all substrates were dissolved in the corresponding buffer solution for enzymatic assay.
(§2) For each inhibitor, five inhibitor concentrations, ranging from zero to three times Ki, were generally used to determine the Ki value. […] The amount of enzyme added in each assay was adjusted so that less than 10 percent of the substrate, with its lowest substrate concentration, would be consumed within 45 seconds. Since all of the substrates have p-nitrophenol as leaving group, the assays were monitored at 400 nanometers (nm), where the molecular extinction coefficient, ε, was calibrated to be 3204.5M^-1 cm^-1 at pH 6.5. The following illustrates the detailed procedure.
To a 1 mL disposable cuvette were added […] (μL) of the NaOAc-PIPES buffer solution, 20 μL of the inhibitor solution and 20 μL of the p-nitrophenyl β-D-glucoside solution (100 Mm in PIPES-NaoAc buffer, PH 6.5). The solution was well mixed and 20 μL of the β-D-glucosidase solution were injected into the cuvette to start the reaction. The reaction was monitored at 400 nm on a Beckman DU-70 photospectrometer for 45 seconds and the initial hydrolysis rate was calculated. The same procedure was repeated with five other substrate concentrations. After all the initial rates were accumulated, the corresponding Lineweaver-Burk plot at that inhibitor concentration was constructed.
PIPES-NaOAc buffer was used for all the enzymes except β-N-acetyl-D-glucosaminedase, for which PIPES buffer was used.

A further assay relates to β-Glucosidase (SA). Kind of assay: Glycosidase inhibition, β-glucosidase from sweet almond. It counts as biochemical. The following applies: kinetic analysis.
Description: as §1
b) PIPES-NaOAc buffer (0.01M PIPES, 0.2M NaOAc and 0.01 mM EDTA, pH 6.5). This buffer was prepared according to the literature procedure [Dale et al., Biochemistry 1985, 24, 3530]. […]
For each inhibitor, five inhibitor concentrations, ranging from zero to three times Ki, were generally used to determine the Ki value. […] Since all of the substrates have p-nitrophenol as leaving group, the assays were monitored at 400 nanometers (nm), where the molecular extinction coefficient, ε, was calibrated to be 3204.5M^-1 cm^-1 at pH 6.5. […]
To a 1 mL disposable cuvette were added 950 microliters (μL) of the NaOAc-PIPES buffer solution, 20 μL of the inhibitor solution and 20 μL of the p-nitrophenyl β-D-glucoside solution (100 Mm in PIPES-NaoAc buffer, PH 6.5). […] The reaction was monitored at 400 nm on a Beckman DU-70 photospectrometer for 45 seconds and the initial hydrolysis rate was calculated. […]

Assay [1] addresses T2, α-Glucosidase Type I (calf liver) (Bos taurus, UniProt A0A3Q1M9D9).
T2 construct: host or cells: calf liver
T2 sequence (A0A3Q1M9D9 1-839): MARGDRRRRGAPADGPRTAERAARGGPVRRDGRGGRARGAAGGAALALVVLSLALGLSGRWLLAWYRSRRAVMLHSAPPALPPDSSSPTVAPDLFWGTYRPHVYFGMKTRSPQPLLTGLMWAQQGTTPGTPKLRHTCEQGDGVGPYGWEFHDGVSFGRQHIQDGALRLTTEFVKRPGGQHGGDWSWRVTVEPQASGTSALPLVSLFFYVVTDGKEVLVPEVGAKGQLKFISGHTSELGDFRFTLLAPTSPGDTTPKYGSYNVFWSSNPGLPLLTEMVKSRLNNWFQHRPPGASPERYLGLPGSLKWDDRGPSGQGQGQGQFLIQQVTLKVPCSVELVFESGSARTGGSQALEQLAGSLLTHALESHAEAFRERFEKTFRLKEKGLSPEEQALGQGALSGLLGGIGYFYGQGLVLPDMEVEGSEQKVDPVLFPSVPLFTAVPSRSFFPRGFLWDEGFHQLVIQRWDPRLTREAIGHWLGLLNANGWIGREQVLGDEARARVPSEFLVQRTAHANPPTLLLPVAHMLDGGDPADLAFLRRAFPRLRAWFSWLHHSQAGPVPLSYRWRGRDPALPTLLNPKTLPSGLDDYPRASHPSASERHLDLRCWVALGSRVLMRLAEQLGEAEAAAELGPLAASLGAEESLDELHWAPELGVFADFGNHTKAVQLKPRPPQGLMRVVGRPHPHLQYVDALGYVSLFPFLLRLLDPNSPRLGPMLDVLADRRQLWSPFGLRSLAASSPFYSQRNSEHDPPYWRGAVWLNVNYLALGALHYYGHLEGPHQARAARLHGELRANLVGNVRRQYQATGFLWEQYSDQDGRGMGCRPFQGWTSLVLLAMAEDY
Kind of assay: Glycosidase inhibition, α-glucosidase Type I (calf liver). It counts as biochemical. To be noted: footnote not given.

Assay [2] relates to β-D-Galactosidase (jack bean). In words: Glycosidase inhibition, β-D-galactosidase (jack bean). The following applies: 10 mM inhibitor in the assay. The assay is classed as biochemical.
Description: as §2

In the next assay the target is α-L-Fucosidase. In words: α-L-Fucosidase inhibition, hydrolysis of p-nitrophenyl-α-L-fucoside. The assay is classed as biochemical. The following applies: for Type of fucosidase inhibition: versus fuc-pNP. The protocol: α-L-Fucosidase activity was measured by incubating the enzyme (0.005 Units) with fuc-pNP ([…]) in 0.4 ml of 50 mM acetate buffer, pH 5.5 for 20 minutes at 25° C. in the absence and presence of the azasugars of the present invention. The reaction was stopped by the addition of 0.8 ml of 2 Mm glycine buffer, pH 10.5. The amount of formed p-nitrophenol was determined by optical density spectroscopy at a wavelength of 400 nm.

In assay [3] the test system is AIDS virus gp160 envelope protein precursor. The following applies: Walker et al., Proc. Natl. Acad. Sci. 1987, 84, 8120; cited from earlier work.
[4] abbreviates: pH 6.5, p-nitrophenyl α-D-glucoside, Lineweaver-Burk, read-out: Ki (M), α-Glucosidase (BY).
Where [5] appears, read: fuc-pNP substrate, 50 mM acetate buffer, pH 5.5, 25° C., read-out: Ki (mM), α-L-Fucosidase Inhibition (Table 2).

T1 sequence (P07265 whole entry): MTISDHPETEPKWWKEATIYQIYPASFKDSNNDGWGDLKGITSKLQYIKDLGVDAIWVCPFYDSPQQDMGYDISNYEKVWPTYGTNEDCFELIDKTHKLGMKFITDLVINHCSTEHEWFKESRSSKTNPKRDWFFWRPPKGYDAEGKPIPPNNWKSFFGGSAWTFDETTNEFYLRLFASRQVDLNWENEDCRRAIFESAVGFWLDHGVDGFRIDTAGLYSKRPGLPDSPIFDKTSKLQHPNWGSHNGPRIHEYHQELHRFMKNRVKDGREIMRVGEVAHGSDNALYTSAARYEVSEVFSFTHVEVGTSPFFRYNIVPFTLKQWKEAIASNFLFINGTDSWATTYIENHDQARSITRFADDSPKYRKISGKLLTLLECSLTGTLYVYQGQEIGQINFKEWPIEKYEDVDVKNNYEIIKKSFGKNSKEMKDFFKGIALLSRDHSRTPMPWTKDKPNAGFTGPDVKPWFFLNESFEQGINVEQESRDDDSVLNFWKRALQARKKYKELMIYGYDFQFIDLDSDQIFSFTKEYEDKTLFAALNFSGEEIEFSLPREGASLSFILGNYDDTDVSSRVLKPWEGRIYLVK

For the compound `C[C@H]1NC[C@H](O)[C@@H](O)[C@@H]1O` [Compound 3c, 1,5,6-Trideoxy-1,5-imino-D-glucitol], on α-Glucosidase (BY), the Ki was found to be 0.00156 M.

Regarding `C[C@@H]1[C@@H](O)[C@H](O)[C@@H](O)CN1C` [Compound 17, N-Methyl-1,5,6-trideoxy-1,5-imino-D-glucitol], the Ki at α-Glucosidase (BY) (setting [4]) came out at 0.00178 M.

With `CC1C(O)C(O)C(O)C[N+]1(C)[O-]` [Compound 18, N-Methyl-1,5,6-trideoxy-1,5-imino-D-glucitol oxide], at α-Glucosidase (BY) (setting [4]), the Ki came to 0.00695 M. In addition, the “Potency relative to Compound 17, β-glucosidase from sweet almond” value in the assay on β-Glucosidase (SA) is given as “less potent inhibitor than Compound 17”.

With `CN1CC(O)C(O)C(O)C1CO` (stereo not shown) [Compound 19, N-methyl 1-deoxynojirimycin], the values for the Ki (at α-Glucosidase (BY); in assay [1]) were 0.000369 M and 0.07 µM, respectively.

As for `OCC1NCC(O)C(O)C1O` (stereo not shown) [Compound 23, 1-deoxynojirimycin], the Ki at α-Glucosidase (BY) is 8.67e-06 M. Further, in assay [2], the “Inhibition of β-D-Galactosidase (jack bean)” value is recorded as “No inhibition”.

Turning to `OCC1NCC(O)C(O)C1O` [Compound 124, D-1-deoxytalonojirimycin], the Ki on α-L-Fucosidase (setting [5]) came to 0.05 ± 0.006 mM.

Regarding `OC[C@H]1NC[C@@H](O)[C@@H](O)[C@@H]1O` [D-1-deoxymannojirimycin, 1,5-dideoxy-1,5-imino-D-mannitol], the Ki at α-L-Fucosidase (setting [5]) turned out to be 0.03 ± 0.01 mM.

As to `C[C@@H]1OC(O)[C@@H](O)[C@H](O)[C@@H]1O` (stereo partly drawn) [L-Fucose], the Ki on α-L-Fucosidase (competitive inhibitor versus fuc-pNP, read-out: Ki versus fuc-pNP) was determined as 0.3 ± 0.01 mM; at α-L-Fucosidase (setting [5]), 0.3 ± 0.1 mM. Moreover, the “Type of fucosidase inhibition” value in the assay on α-L-Fucosidase is recorded as “competitive inhibitor”.

Regarding `OC1CN2CCC(O)C2C(O)C1O` (stereo not shown) [castanospermine, 1,6,7,8-tetrahydroxyoctahydroindolizine], the “Effect on processing of AIDS virus gp160 envelope protein precursor” value in assay [3] is on record as “inhibit the processing of the AIDS virus gp160 envelope protein precursor”.

In the case of `Oc1ccccc1` [phenol], the Ki on α-L-Fucosidase (noncompetitive inhibitor, analog of p-nitrophenol, read-out: Kis) is 0.18 ± 0.02 mM. Also, the “Type of fucosidase inhibition” value with α-L-Fucosidase was “noncompetitive inhibitor”.
